In US9364554B2, “Extracellular targeted drug conjugates” (priority 2009, dated 2016):
Read-outs that look alike come from different tables or passages of the source.

Legend:
A549 = test: In vitro cell proliferation assay (CellTiter-Glo, 3 days) A549; type: cell-based, human; conditions: for activity decrease when attached to the PEG24 linker and capped, compared to the free uncoupled agent: Example 15; for IC50: Homo sapiens
Protocol: (§1) In vitro cell proliferation assays. […] All cell lines were maintained in complete media [RPMI medium 1640 supplemented with 10% (wt/vol) fetal bovine serum and Gentamycin (50 μg/ml)]. Cells were plated at a density of 1250 (H460 and A549) or 1825 (HCT15 and MCF7) cells per well of each 384-well white tissue culture treated microtiter plate in 20 uls complete media, and then were grown for 24 hour at 37° C. with 7% CO2 in a humidified incubator before agent/conjugate addition. In a separate 96-well plate, agent and antibody conjugate (in PBS) stocks were serially diluted in complete media at 5× final working concentrations, and 5 ul added to the cells used in the assay. Cells were incubated with the agent/conjugate for 3 days before cell viability testing. Cell viability testing used the CellTiter-Glo luminescent cell viability assay (Promega, Madison, Wis.). IC50 values of the agents to each cell line were determined using GraphPad Prism 5 software.
For the experiment below, α-Fl-CEN10-105 (also termed α-Fl-106), CEN10-105-Cys (also termed PEG24106) and M53-PEG24-CEN09-106 were varied as indicated in FIG. 11. […] All were assayed in the A549 cell proliferation assay. Cells were maintained in complete media [RPMI medium 1640 supplemented with 10% (wt/vol) fetal bovine serum and Gentamycin (50 μg/ml)]. Cells were plated at a density of 1250 per well of a 384-well white tissue culture treated microtiter plate in 20 uls complete media, then were grown for 24 hour at 37° C. with 7% CO2 in a humidified incubator before agent/conjugate addition. In a separate 96-well plate, agent and antibody conjugate (in PBS) stocks were serially diluted in complete media at 5× final working concentrations, and 5 uls added to the cells used in the assay. For the competition assay (M53 Comp) M53 was serially diluted from 500 to 0.11 nM in the presence of 5 nM PEG24-106, and 5 ul of these dilutions were added to cells used in this assay. Cells were incubated with the agent/conjugate for 3 days before cell viability testing. Cell viability testing used the CellTiterGlo luminescent cell viability assay (Promega, Madison, Wis.).
Cytotoxicity of the above EDCs were evaluated in vitro on the NSCLC line A549. Cells were maintained in complete media [RPMI medium 1640 supplemented with 10% (wt/vol) fetal bovine serum and Gentamycin (50 μg/ml)]. Cells were plated at a density of 1250 per well of a 384-well white tissue culture treated microtiter plate in 20 uls complete media, then were grown for 24 hour at 37° C. with 7% CO2 in a humidified incubator before conjugate addition. In a separate 96-well plate, ADC (in PBS) stocks were serially diluted in complete media at 5× final working concentrations, and 5 uls added to the cells used in the assay. Cells were incubated in the presence of the compounds for 72 hrs prior to cell viability testing. Cell viability testing was performed using the CellTiter-Glo luminescent cell viability assay (Promega, Madison, Wis.).
Cytotoxicity of the above compounds were evaluated in vitro on the NSCLC line A549. Cells were maintained in complete media [RPMI medium 1640 supplemented with 10% (wt/vol) fetal bovine serum and Gentamycin (50 μg/ml)]. Cells were plated at a density of 1250 per well of a 384-well white tissue culture treated microtiter plate in 20 uls complete media, then were grown for 24 hour at 37° C. with 7% CO2 in a humidified incubator before agent addition.

A375 = test: Cytotoxicity IC50 on A375; type: cell-based; conditions: Homo sapiens
Description: (§2) ND indicates IC50 values that could not be determined at the concentrations tested. The presence of the antibody M53's target on the cell surface as determined by M53 cell staining is indicated as Yes/No. The origin of the cell line and disease type for each cell line is also indicated.
Parent CEN09-106, CEN09-104 and CEN10-126 drugs were all linked to antibody M53 via the PEG24 linker as described in Example 5. The intermediate drug-PEG24's were capped with cysteine as described in Example 5. Cytotoxicity of the EDC's and the drug-PEG24 linkers were evaluated in vitro on the NSCLC line A549 and malignant melanoma cell line A375 as described in Example 5.

MALME-3M = test: Cytotoxicity IC50 on MALME-3M; type: cell-based; conditions: Homo sapiens, Example 9
Description: as §2

HCT15 = test: In vitro cell proliferation assay (CellTiter-Glo, 3 days) HCT15; type: cell-based; conditions: Homo sapiens
Protocol: as §1

H460 = test: In vitro cell proliferation assay (CellTiter-Glo, 3 days) H460; type: cell-based; conditions: Homo sapiens
Protocol: as §1

A431 = test: Cytotoxicity IC50 on A431; type: cell-based; conditions: Homo sapiens, A-431; Example 9
Description: as §2

MEL2 = test: Cytotoxicity IC50 on MEL2; type: cell-based; conditions: Homo sapiens, Example 9
Description: as §2

SKOV3 = test: Cytotoxicity IC50 on SKOV3; type: cell-based; conditions: Homo sapiens, SK-OV-3; Example 9
Description: as §2

MB-231 = test: Cytotoxicity IC50 on MB-231; type: cell-based; conditions: Homo sapiens; Example 9
Description: as §2

MCF7 = test: In vitro cell proliferation assay (CellTiter-Glo, 3 days) MCF7; type: cell-based; conditions: Homo sapiens
Protocol: as §1

MCF10a = test: Cytotoxicity IC50 on MCF10a; type: cell-based; conditions: Homo sapiens, MCF-10A; Example 9
Description: as §2

HT29 = test: Cytotoxicity IC50 on HT29; type: cell-based; conditions: Homo sapiens, HT-29; Example 9
Description: as §2

A549 cells = test: In vitro cell proliferation assay, Example 4 (CellTiter-Glo, 2 days); type: cell-based, human
Protocol: In vitro cell proliferation assays. […] All cell lines were maintained in complete media [RPMI medium 1640 supplemented with 10% (wt/vol) fetal bovine serum and Gentamycin ([…])]. Cells were plated at a density of 5,000 cells per well of each 96-well black tissue culture treated microtiter plate in 95 ul complete media, then were grown for 24 hour at 37° C. with 7% CO2 in a humidified incubator before agent/conjugate addition. In a separate 96-well plate, agent (in DMSO) and antibody conjugate (in PBS) stocks were serially diluted in complete media at 20× final working concentrations, and 5 ul added to the cells used in the assay. Doxorubicin was used as the control to monitor the behavior of the cell lines used. Cells were incubated with the agent/conjugate for 2 days before luminescence reading. Cell viability testing used the CellTiter-Glo luminescent cell viability assay (Promega, Madison, Wis.).

[1] = A549, read-out: IC50 A549, Example 15

C[C@]12CCC(=NNC(=O)CN)C=C1CCC1C2CC[C@]2(C)[C@@H](c3ccc(=O)oc3)CC[C@]12O (stereo partly drawn) [CEN09-104, glycinyl hydrazine of scillarenone]
activity decrease when attached to the PEG24 linker and capped, compared to the free uncoupled agent (A549): ~5 fold
IC50 (A549; [1]): 0.092 µM
IC50 (A375; A-375, Example 15): 0.23 µM

C[C@]12CC[C@H](OC3OC[C@H](N)[C@@H](O)[C@@H]3O)C=C1CCC1C2CC[C@]2(C)[C@@H](c3ccc(=O)oc3)CC[C@]12O (stereo partly drawn) [CEN09-106, Scillarenin-4-amino-4-deoxy-L-xylopyranoside]
IC50 (MALME-3M): 0.0054 µM
IC50 (HCT15; HCT-15, 72 h, read-out: IC50 HCT15): 0.00235 µM
IC50 (HCT15; HCT-15, read-out: IC50 HCT15): 0.0023 µM
IC50 (H460; NCI-H460, 72 h, read-out: IC50 H460): 0.00131 µM
IC50 (H460; NCI-H460, read-out: IC50 H460): 0.0016 µM
IC50 (A549; A549, 72 h, Example 14, cysteine-capped linker forms, A549, 72 hrs): 0.00046 µM
IC50 (A549; A549, 72 h, read-out: IC50 A549, 3 days, CellTiter-Glo): 0.00056 µM
IC50 (A549; A549, read-out: IC50 A549, Example 9): 0.0007 µM
IC50 (A549; [1]): 0.0005 µM
IC50 (A431): 0.002 µM
IC50 (MEL2): 0.0043 µM
IC50 (SKOV3): 0.0053 µM
IC50 (MB-231): 0.007 µM
IC50 (MCF7; MCF7, 72 h, read-out: IC50 MCF7): 0.00188 µM
IC50 (MCF7; MCF7, read-out: IC50 MCF7): 0.0026 µM
IC50 (A375; A-375, Example 9): 0.0032 µM
IC50 (A375; A-375, Example 15): 0.0014 µM
IC50 (MCF10a): 0.0066 µM
IC50 (HT29): 0.0031 µM

C[C@]12CC[C@H](O[C@@H]3OC(CO)[C@@H](O)[C@H](O)C3N)C=C1CCC1C2CC[C@]2(C)[C@@H](c3ccc(=O)oc3)CC[C@]12O (stereo partly drawn) [CEN10-126, scillarenin-2-deoxy-2-amino-β-D-glucopyranoside]
activity decrease when attached to the PEG24 linker and capped, compared to the free uncoupled agent (A549): ~300 fold
IC50 (A549; [1]): 0.0013 µM

CC1=C2C[C@H]3[C@@H](CC=C4C[C@@H](O)CC[C@@]43C)[C@@H]2CC[C@]12O[C@@H]1C[C@H](C)CN(CCCCCCNC(=O)CCOCCOCCOCCOCCOCCOCCOCCOCCOCCOCCOCCOCCOCCOCCOCCOCCOCCOCCOCCOCCOCCOCCOCCOCCNC(=O)CCN3C(=O)C=CC3=O)C1[C@H]2C (stereo partly drawn) [CEN10-130]
IC50 (A549; A549, Example 10, working concentrations 0.9 to 1000 uM, read-out: IC50 A549): 244 µM

N[C@@H](C=O)[C@@H](O)[C@H](O)[C@H](O)CO [GlcNH2, 2-amino-2-deoxy-D-Glucose, reference compound]
IC50 (H460; NCI-H460, read-out: IC50 H460): > 1000 µM
IC50 (A549; A549, read-out: IC50 A549, Example 11, 457 nM to 1 mM): > 1000 µM

CC1=C2C[C@H]3[C@@H](CC=C4C[C@@H](O)CC[C@@]43C)[C@@H]2CC[C@]12O[C@@H]1C[C@H](C)CN[C@H]1[C@H]2C [cyclopamine, Cyclopamine, reference compound]
IC50 (A549; A549, read-out: IC50 A549): 392 µM

scillarenin neo-4-amino-4-deoxy-L-xylopyranoside [CEN08-243]
A549 cell cytotoxicity (in words) (A549 cells; within the testing concentration range, antibodies alone = reduced antibody with linker, no agent): display cytotoxic activity

scillarenin-4-amino-4-deoxy-L-ribopyranoside [CEN09-107]
activity of conjugate compared with free agent (in words) (A549 cells; A549, FIGS. 3-6): more active when not conjugated to L15
